According to patent US6685617B1, “Inhibitors of α4β1 mediated cell adhesion” (Pharmacia & Upjohn Company, priority 1998, dated 2004):

Tests used:
[1] = biological target: T1, α4β1 integrin (Jurkat T-cell adhesion to IL-1 stimulated endothelial cell monolayers) (Homo sapiens, UniProt P05556+P13612); experiment: Jurkat-endothelial cell adhesion assay (Jurkat EC); assay type: cell-based; settings: Jurkat cells on IL-1 stimulated human umbilical vein endothelial cells; read-out: JK/EC (Jurkat EC Assay IC50 value range)
T1 construct: a T-cell line, Jurkat, known to express the α4β1 integrin; host or cells: Jurkat T-cell line
T1 sequence (P13612 34-1032): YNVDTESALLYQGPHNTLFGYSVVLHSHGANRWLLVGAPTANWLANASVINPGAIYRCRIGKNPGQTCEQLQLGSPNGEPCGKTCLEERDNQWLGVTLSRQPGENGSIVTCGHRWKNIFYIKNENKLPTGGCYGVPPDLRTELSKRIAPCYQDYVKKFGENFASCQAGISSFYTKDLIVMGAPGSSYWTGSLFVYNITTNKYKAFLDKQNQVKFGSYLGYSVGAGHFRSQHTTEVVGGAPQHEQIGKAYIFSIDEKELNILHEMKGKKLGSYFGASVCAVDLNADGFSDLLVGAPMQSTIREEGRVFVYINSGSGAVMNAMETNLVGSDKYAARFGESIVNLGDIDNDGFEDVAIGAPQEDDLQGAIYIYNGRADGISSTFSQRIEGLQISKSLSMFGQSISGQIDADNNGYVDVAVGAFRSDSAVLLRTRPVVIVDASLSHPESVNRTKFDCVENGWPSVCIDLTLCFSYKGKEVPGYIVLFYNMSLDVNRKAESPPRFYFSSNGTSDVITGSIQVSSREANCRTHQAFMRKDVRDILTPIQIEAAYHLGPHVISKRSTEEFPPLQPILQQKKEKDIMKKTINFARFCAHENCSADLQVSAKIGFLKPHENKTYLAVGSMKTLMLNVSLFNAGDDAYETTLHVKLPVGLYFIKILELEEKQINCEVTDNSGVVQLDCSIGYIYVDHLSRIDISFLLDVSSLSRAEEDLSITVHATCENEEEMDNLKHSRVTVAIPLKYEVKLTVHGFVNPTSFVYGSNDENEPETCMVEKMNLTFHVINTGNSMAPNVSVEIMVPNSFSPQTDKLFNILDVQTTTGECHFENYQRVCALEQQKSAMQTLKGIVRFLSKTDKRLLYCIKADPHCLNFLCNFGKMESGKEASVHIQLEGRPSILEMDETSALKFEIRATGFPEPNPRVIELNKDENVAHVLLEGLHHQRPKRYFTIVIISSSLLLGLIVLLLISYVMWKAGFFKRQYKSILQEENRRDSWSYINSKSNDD
T1 sequence (P05556 21-798): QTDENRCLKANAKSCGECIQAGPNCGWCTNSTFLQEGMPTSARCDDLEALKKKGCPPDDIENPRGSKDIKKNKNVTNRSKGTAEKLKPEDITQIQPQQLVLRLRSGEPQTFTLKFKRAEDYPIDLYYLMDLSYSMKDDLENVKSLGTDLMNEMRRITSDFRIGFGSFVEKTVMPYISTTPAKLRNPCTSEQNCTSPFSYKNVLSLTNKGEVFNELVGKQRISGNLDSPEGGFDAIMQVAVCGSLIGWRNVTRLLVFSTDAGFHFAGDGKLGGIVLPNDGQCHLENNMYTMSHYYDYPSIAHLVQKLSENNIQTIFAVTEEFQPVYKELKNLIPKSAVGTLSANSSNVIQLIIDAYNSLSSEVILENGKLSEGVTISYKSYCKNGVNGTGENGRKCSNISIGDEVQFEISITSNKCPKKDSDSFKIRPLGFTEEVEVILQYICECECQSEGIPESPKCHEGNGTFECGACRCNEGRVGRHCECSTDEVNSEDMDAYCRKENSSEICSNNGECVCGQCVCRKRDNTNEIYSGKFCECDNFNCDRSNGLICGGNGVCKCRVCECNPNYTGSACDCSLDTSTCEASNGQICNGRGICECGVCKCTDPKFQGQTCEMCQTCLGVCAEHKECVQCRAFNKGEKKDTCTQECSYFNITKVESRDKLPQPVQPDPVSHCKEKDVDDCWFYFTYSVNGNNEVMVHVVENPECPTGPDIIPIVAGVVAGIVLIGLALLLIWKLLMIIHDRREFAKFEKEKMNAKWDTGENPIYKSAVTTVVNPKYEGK
Method in brief: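 Adhesion was expressed as percent of compound-free fluorescence after 20 min at 37° C (following 5 min settling on ice) of BCECF-loaded Jurkat T cells on washed HUVEC monolayers. The endothelium, passage 6 or lower, had received 0.1 ng/ml recombinant IL-1 for 4 hr at 37° C; compound was premixed with the T cells, typically at 100, 20, 5 and 1.25 μM.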

[2] = biological target: T2, α4β1 integrin (Jurkat cell adhesion to immobilized CS-1 derived peptide CLHPGEILDVPST) (Homo sapiens, UniProt P05556+P13612); experiment: Jurkat-CS-1 assay; assay type: cell-based; settings: Jurkat cells on CS-1 peptide coated plates; read-out: JK/CS-1 (Jurkat CS-1 Assay IC50 value range)
T2 construct: 100 μl of Jurkat cells (2.5×10^6 cells/ml) in DMEM plus BSA; host or cells: Jurkat T-cell line
T2 sequence (P13612 34-1032): as the sequence (P13612 34-1032) above
T2 sequence (P05556 21-798): as the sequence (P05556 21-798) above
Method in brief: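 CS-1 peptide was SPDP-crosslinked onto HSA-coated plates and blocked with BSA. Jurkat cells (2.5×10^6 cells/ml) in DMEM/BSA were mixed with compound, generally at 100, 20, 5 and 1.25 μM, and allowed to adhere for 1 hr at 37° C. Bound cells were fixed, stained with toluidine blue and quantified by OD590.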

SMILES | IC50 [1] [nM] | IC50 [2] [nM]
COC(=O)[C@H](Cc1ccc(NC(=O)c2c(Cl)cccc2Cl)cc1)NC(=O)[C@H]1CSCN1S(=O)(=O)c1ccc(C(F)(F)F)cn1 [Example 44, 4-[(2,6-Dichlorobenzoyl)amino]-N-[[(4S)-3-[[5-(trifluoromethyl)-2-pyridinyl]sulfonyl]-4-thiazolidinyl]carbonyl]-L-phenylalanine Methyl Ester] | ≥ 1000 | ≥ 750
CC(c1ccccc1)N1C(C(=O)O)CC1C(=O)NC(Cc1ccc(NC(=O)c2c(Cl)cccc2Cl)cc1)C(=O)O (single isomer, unassigned) [Example 133] | ≥ 1000 | ≥ 750
O=C(O)/C=C/C(=O)N1CCC[C@H]1C(=O)N[C@@H](Cc1ccc(NC(=O)c2c(Cl)cccc2Cl)cc1)C(=O)O [Example 228] | ≥ 1000 | 50 to 750
O=C(O)CCC(=O)N1CSC[C@H]1C(=O)N[C@@H](Cc1ccc(NC(=O)c2c(Cl)cccc2Cl)cc1)C(=O)O (relative stereo) [Example 67, [R-(R*,S*)]-4-[[[1-Carboxy-2-[4-[(2,6-dichlorobenzoyl)amino]phenyl]ethyl]amino]carbonyl]-γ-oxo-3-thiazolidinebutanoic Acid] | ≥ 1000 | 50 to 750
O=C(Nc1ccc(C[C@H](NC(=O)[C@@H]2COCN2C(=O)OCc2ccccc2)C(=O)O)cc1)c1c(Cl)cccc1Cl [Example 125, [S-(R*,R*)]-4-[[[1-Carboxy-2-[4-[(2,6-dichlorobenzoyl)amino]phenyl]ethyl]amino]-carbonyl]-3-oxazolidinecarboxylic Acid 3-Phenylmethyl Ester] | 250 to 1000 | 50 to 750
O=C(O)CCC1(CCC(=O)N[C@@H](Cc2ccc(NC(=O)c3c(Cl)cccc3Cl)cc2)C(=O)O)CCC(=O)N1 (stereo partly shown) [Example 115] | ≥ 1000 | 50 to 750
COC(=O)[C@H](Cc1ccc(NC(=O)c2c(Cl)cccc2Cl)cc1)NC(=O)[C@@H]1N(C(=O)OC(C)(C)C)CSC1(C)C (relative stereo) [Example 28, [S-(R*,R*)]-4-[[[1-[[4-[(2,6-Dichlorobenzoyl)amino]phenyl]methyl]-2-methoxy-2-oxoethyl]amino]carbonyl]-5,5-dimethyl-3-thiazolidinecarboxylic Acid 3-(1,1-Dimethylethyl)ester] | ≥ 1000 | ≥ 750
O=C(O)c1cncc(C(=O)N2CCC[C@@H]2C(=O)N[C@@H](Cc2ccc(NC(=O)c3c(Cl)cccc3Cl)cc2)C(=O)O)c1 [Example 257] | 250 to 1000 | 50 to 750
COC(=O)CCC(=O)N1CSC[C@@H]1C(=O)N[C@@H](Cc1ccc(NC(=O)c2c(Cl)cccc2Cl)cc1)C(=O)OC (relative stereo) [Example 8, [S-(R*,R*)]-4-[[[1-[[4-[(2,6-Dichlorobenzoyl)amino]phenyl]methyl]-2-methoxy-2-oxoethyl]amino]carbonyl]-γ-oxo-3-thiazolidinebutanoic Acid 3-Methyl Ester] | 250 to 1000 | 50 to 750
COCCC(=O)N1CCCC[C@H]1C(=O)N[C@@H](Cc1ccc(NC(=O)c2c(Cl)cccc2Cl)cc1)C(=O)O [Example 177] | ≥ 1000 | ≤ 50
CC(C)(CC(=O)O)CC(=O)N1CCC[C@H]1C(=O)N[C@@H](Cc1ccc(NC(=O)c2c(Cl)cccc2Cl)cc1)C(=O)O [Example 226] | ≥ 1000 | 50 to 750
O=C(Nc1ccc(C[C@H](NC(=O)[C@@H]2CCCCN2C(=O)c2ccc([N+](=O)[O-])o2)C(=O)O)cc1)c1c(Cl)cccc1Cl [Example 191] | ≥ 1000 | 50 to 750
O=C(O)c1cncc(C(=O)N2CCCC(C(=O)N[C@@H](Cc3ccc(NC(=O)c4c(Cl)cccc4Cl)cc3)C(=O)O)C2)c1 (stereo partly shown) [Example 207] | ≥ 1000 | 50 to 750
CCOC(=O)N1[C@@H](C(=O)O)C[C@@H]1C(=O)N[C@@H](Cc1ccc(NC(=O)c2c(Cl)cccc2Cl)cc1)C(=O)O [Example 141, [2R-(2α,4β(S*)]-4-[[[1-Carboxy-2-[4-[(2,6-dichlorobenzoyl)amino]phenyl]ethyl]-amino]-carbonyl]-1,2-azetidinedicarboxylic Acid 1-Ethyl Ester] | ≥ 1000 | 50 to 750
O=C(O)[C@H](Cc1ccc(OCc2c(Cl)cccc2Cl)cc1)NC(=O)[C@H]1CSCN1C(=O)OCCN1CCOCC1 (relative stereo) [Example 37] | ≤ 250 | ≤ 50
COC(=O)[C@H](Cc1ccc(NC(=O)c2c(Cl)cccc2Cl)cc1)NC(=O)[C@H]1CSC(C)(C)N1C(C)=O [Example 83, N-[[(4S)-3-Acetyl-2,2-dimethyl-4-thiazolidinyl]carbonyl]-4-[(2,6-dichlorobenzoyl)amino]-L-phenylalanine Methyl Ester] | ≥ 1000 | 50 to 750
CC1(C)SC(C)(C)N(C(=O)CCCC(=O)O)[C@@H]1C(=O)N[C@@H](Cc1ccc(NC(=O)c2c(Cl)cccc2Cl)cc1)C(=O)O (relative stereo) [Example 88, [R-(R*,S*)]-4-[[[1-Carboxy-2-[4-[(2,6-dichlorobenzoyl)amino]phenyl]ethyl]amino]carbonyl]-2,2,5,5-tetramethyl-δ-oxo-3-thiazolidinepentanoic Acid] | ≥ 1000 | 50 to 750
CCOC(=O)N1[C@@H](C(=O)N[C@@H](Cc2ccc(NC(=O)c3c(Cl)cccc3Cl)cc2)C(=O)OC)CSC12CCCCC2 (relative stereo) [Example 79, [S-(R*,R*)]-3-[[[1-[[4-[(2,6-Dichlorobenzoyl)amino]phenyl]methyl]-2-methoxy-2-oxoethyl]amino]carbonyl]-1-thia-4-azaspiro[4.5]decanecarboxylic Acid 4-Ethyl Ester] | ≥ 1000 | ≥ 750
COC(=O)[C@H](Cc1ccc(NC(=O)c2c(Cl)cccc2Cl)cc1)NC(=O)[C@H]1CSCN1C(=O)CCCC(=O)O (relative stereo) [Example 150, [S-(R*,R*)]-4-[[[1-[[4-[(2,6-Dichlorobenzoyl)amino]phenyl]methyl]-2-methoxy-2-oxoethyl]amino]carbonyl]-δ-oxo-3-thiazoidinepentanoic Acid] | 250 to 1000 | 50 to 750
N#CCCC(=O)N1CCSC[C@H]1C(=O)N[C@@H](Cc1ccc(NC(=O)c2c(Cl)cccc2Cl)cc1)C(=O)O [Example 104, N-[[(3R)-4-(3-Cyano-1-oxopropyl)-3-thiomorpholinyl]carbonyl]-4-[[2,6-dichlorobenzoyl)amino]-L-phenylalanine] | ≥ 1000 | 50 to 750
CS(=O)(=O)N1CSC[C@@H]1C(=O)N[C@@H](Cc1ccc(OCc2c(Cl)cccc2Cl)cc1)C(=O)O [Example 51, O-[(2,6-Dichlorophenyl)methyl]-N-[[(4S)-3-(methylsulfonyl)-4-thiazolidinyl]carbonyl]-L-tyrosine] | 250 to 1000 | 50 to 750
O=C(O)c1ccccc1C(=O)N1CCCC[C@H]1C(=O)N[C@@H](Cc1ccc(NC(=O)c2c(Cl)cccc2Cl)cc1)C(=O)O [Example 181] | ≥ 1000 | 50 to 750
COC(=O)[C@H](Cc1ccc(NC(=O)c2c(Cl)cccc2Cl)cc1)NC(=O)[C@H]1CSCN1C(=O)OCc1ccccc1 (relative stereo) [Example 20, [S-(R*,R*)]-4-[[[1-[[4-[(2,6-Dichlorobenzoyl)amino]phenyl]methyl]-2-methoxy-2-oxoethyl]amino]carbonyl]-3-thiazolidinecarboxylic Acid 3-Phenylmethyl Ester] | ≥ 1000 | ≥ 750
O=C(O)CCC(=O)N1CCSC[C@H]1C(=O)N[C@@H](Cc1ccc(NC(=O)c2c(Cl)cccc2Cl)cc1)C(=O)O (relative stereo) [Example 99, [R-(R*,S*)]-3-[[[1-Carboxy-2-[4-[(2,6-dichlorobenzoyl)amino]phenyl]ethyl]amino]carbonyl]-γ-oxo-4-thiomorpholinebutanoic Acid] | ≤ 250 | ≤ 50
CCS(=O)(=O)N1CSC[C@@H]1C(=O)N[C@@H](Cc1ccc(NC(=O)c2c(Cl)cccc2Cl)cc1)C(=O)OC [Example 42] | 250 to 1000 | 50 to 750
O=C(Nc1ccc(C[C@H](NC(=O)[C@@H]2CCCCN2C(=O)C2CCOC2)C(=O)O)cc1)c1c(Cl)cccc1Cl (stereo partly shown) [Example 193] | ≤ 250 | 50 to 750
O=C(O)CCC(=O)N1CCC[C@@H]1C(=O)N[C@@H](Cc1ccc(NC(=O)c2c(Cl)cccc2Cl)cc1)C(=O)O [Example 254] | 250 to 1000 | 50 to 750
CCOC(=O)N1[C@@H](C(=O)N[C@@H](Cc2ccc(NC(=O)c3c(Cl)cccc3Cl)cc2)C(=O)OC)CSC12CCCC2 (relative stereo) [Example 77, [S-(R*,R*)]-3-[[[1-[[4-[(2,6-Dichlorobenzoyl)amino]phenyl]methyl]-2-methoxy-2-oxoethyl]amino]carbonyl]-1-thia-4-azaspiro[4.4]nonane-4-carboxylic Acid 4-Ethyl Ester] | ≥ 1000 | ≥ 750
O=C(Nc1ccc(C[C@H](NC(=O)[C@@H]2CSCCN2C(=O)CCc2nnn[nH]2)C(=O)O)cc1)c1c(Cl)cccc1Cl [Example 103, 4-[(2,6-Dichlorobenzoyl)amino]-N-[[(3R)-4-[1-oxo-3-(1H-tetrazol-5-yl)propyl]-3-thiomorpholinyl]-carbonyl]-L-phenylalanine] | 250 to 1000 | ≤ 50
